Experimental data: patent publication US20110045101A1, “FUNGICIDAL SUBSTITUTED AZOLES” (E.I. Du Pont De Nemours and Company, priority 2009, published 2011)
Marks after values point to notes of the source that are not given here.

Legend:
Assay type in all cases: in vivo
Conditions in all cases: 100 = 100% disease control
[1] = test system: Botrytis cinerea; test: Test C: tomato Botrytis on tomato seedlings, sprayed the day before inoculation, visual disease rating
Procedure, shortened: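 Spray to run-off on tomato seedlings; test conc. 200 ppm (≈500 g/ha), some entries 40 ppm. Formulation: acetone 3% of final vol., then acetone/water 50:50 + 250 ppm polyhydric alcohol ester surfactant.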

[2] = test system: Puccinia recondita f. sp. tritici; test: Test I: wheat leaf rust on wheat seedlings, sprayed the day before inoculation, visual disease rating
Procedure, shortened: (§1)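 Spray suspension: acetone 3% of final volume, then 50/50 acetone/water plus 250 ppm Trem® 014. Applied to run-off on seedlings at 200 ppm (≈500 g/ha); starred entries tested at 40 ppm.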

[3] = test system: Erysiphe graminis f. sp. tritici; test: Test J: wheat powdery mildew on wheat seedlings, sprayed the day before inoculation, visual disease rating
Procedure, shortened: as §1

[4] = test system: Puccinia recondita f. sp. tritici; test: Test H: wheat leaf rust, test suspension sprayed after inoculation of wheat seedlings, visual disease rating
Procedure, shortened: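 Wheat seedlings inoculated with P. recondita spores, held 24 h saturated at 20 °C, then 2 days in growth chamber at 20 °C; compound suspension (acetone/water with Trem 014) sprayed to run-off afterwards. Rated visually; 200 ppm (≈500 g/ha) unless marked *, which denotes 40 ppm.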

[5] = test system: Alternaria solani; test: Test D: tomato early blight, sprayed the day before inoculation, visual disease rating
Procedure, shortened: as §1

[6] = test system: Septoria nodorum; test: Test F: wheat glume blotch on wheat seedlings, sprayed the day before inoculation, visual disease rating
Procedure, shortened: as §1

[7] = test system: Septoria tritici; test: Test G: wheat leaf blotch on wheat seedlings, sprayed the day before inoculation, visual disease rating
Procedure, shortened: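 Visual disease ratings taken 19 days after transfer to a 20° C growth chamber, following 48 h in saturated atmosphere at 24° C. Seedlings had been sprayed to run-off one day before spore inoculation. Dose 200 ppm, or 40 ppm where starred.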

[8] = 200 ppm, 0 = no control relative to controls
[9] = 40 ppm (marked *), 0 = no control

Compound	Test C disease control rating [1, 8] [%]	Test I disease control rating [2, 8] [%]	Test J disease control rating [3, 8] [%]	Test H disease control rating [4, 8] [%]	Test D disease control rating [5, 8] [%]	Test F disease control rating [6, 8] [%]	Test G disease control rating [7, 8] [%]	other results
Fc1cccc(-n2c(Br)nc(Cl)c2-c2c(F)ccc(F)c2F)c1 [compound 368]	99	99	96	0	100	0	92	
CCc1nc(C)n(-c2ccc(Cl)cc2)c1-c1c(F)cccc1F [compound 305]								Test C disease control rating [1, 9]: 63* %; Test I disease control rating [2, 9]: 0* %; Test J disease control rating [3, 9]: 0* %; Test H disease control rating [4, 9]: 11* %; Test D disease control rating [5, 9]: 0* %; Test F disease control rating [6, 9]: 0* %; Test G disease control rating [7, 9]: 23* %
Cc1ccc(-n2c(Cl)nc(Cl)c2-c2c(F)cccc2F)nc1 [compound 577]	100	100	100	97	100	87	100	
CN(C)c1c(Cl)cc(-n2cnc(Cl)c2-c2c(F)cccc2F)cc1Cl [compound 652]								Test C disease control rating ([1]; 40 ppm (marked *)): 0* %; Test I disease control rating ([2]; 40 ppm (marked *)): 0* %; Test J disease control rating ([3]; 40 ppm (marked *)): 0* %; Test H disease control rating ([4]; 40 ppm (marked *)): 6* %; Test D disease control rating ([5]; 40 ppm (marked *)): 0* %; Test F disease control rating ([6]; 40 ppm (marked *)): 0* %; Test G disease control rating ([7]; 40 ppm (marked *)): 0* %
Cc1nc(Br)c(-c2c(F)cccc2F)n1-c1ccc2ccccc2c1 [compound 336]								Test C disease control rating [1, 9]: 99* %; Test I disease control rating [2, 9]: 74* %; Test J disease control rating [3, 9]: 87* %; Test H disease control rating [4, 9]: 0* %; Test D disease control rating [5, 9]: 88* %; Test F disease control rating [6, 9]: 99* %; Test G disease control rating [7, 9]: 96* %
COc1cc(OC)cc(-n2c(Br)nc(C)c2-c2c(F)cc(OC)cc2F)c1 [compound 657]								Test C disease control rating ([1]; 40 ppm (marked *)): 99* %; Test I disease control rating ([2]; 40 ppm (marked *)): 100* %; Test J disease control rating ([3]; 40 ppm (marked *)): 96* %; Test H disease control rating ([4]; 40 ppm (marked *)): 100* %; Test D disease control rating ([5]; 40 ppm (marked *)): 99* %; Test F disease control rating ([6]; 40 ppm (marked *)): 99* %; Test G disease control rating ([7]; 40 ppm (marked *)): 99* %
Cc1cccc(-c2c(C)ncn2-c2ccc(Cl)c(F)c2)n1 [compound 375]	99	68	62	32	26	0	92	
Cc1nc(Cl)c(-c2c(F)ccc(C#N)c2F)n1-c1ccc(Cl)cc1 [Compound 430, 3-[4-chloro-1-(4-chlorophenyl)-2-methyl-1H-imidazol-5-yl]-2,4-difluorobenzonitrile]								pest or weed control at 200 ppm ([1]; Botrytis cinerea, 120 h, 200 ppm, 0 = no control relative to controls): 100%; pest or weed control at 200 ppm ([2]; Puccinia recondita, 168 h, 200 ppm, 0 = no control relative to controls): 100%; pest or weed control at 200 ppm ([3]; Blumeria graminis, 168 h, 200 ppm, 0 = no control relative to controls): 100%; pest or weed control at 200 ppm ([4]; Puccinia recondita, 96 h, 200 ppm, 0 = no control relative to controls): 0%; pest or weed control at 200 ppm ([5]; Alternaria solani, 168 h, 200 ppm, 0 = no control relative to controls): 100%; pest or weed control at 200 ppm ([6]; Parastagonospora nodorum, 264 h, 200 ppm, 0 = no control relative to controls): 100%; pest or weed control at 200 ppm ([7]; Zymoseptoria tritici, 504 h, 200 ppm, 0 = no control relative to controls): 100%
COC(=O)c1ccc(-n2cnc(N(C)C)c2-c2c(F)cccc2F)cc1 [compound 633]								Test C disease control rating ([1]; 40 ppm (marked *)): 0* %; Test I disease control rating ([2]; 40 ppm (marked *)): 44* %; Test J disease control rating ([3]; 40 ppm (marked *)): 0* %; Test H disease control rating ([4]; 40 ppm (marked *)): 0* %; Test D disease control rating ([5]; 40 ppm (marked *)): 0* %; Test F disease control rating ([6]; 40 ppm (marked *)): 0* %; Test G disease control rating ([7]; 40 ppm (marked *)): 0* %
Fc1cccc(F)c1-c1c(Cl)nc(Br)n1-c1ccc2ncccc2c1 [compound 327]								Test C disease control rating [1, 9]: 99* %; Test I disease control rating [2, 9]: 86* %; Test J disease control rating [3, 9]: 0* %; Test H disease control rating [4, 9]: 0* %; Test D disease control rating [5, 9]: 98* %; Test F disease control rating [6, 9]: 0* %; Test G disease control rating [7, 9]: 94* %
COc1cc(F)c(-c2c(N(C)C)ncn2Cc2ccc(C)cc2)c(F)c1 [compound 275]								Test C disease control rating ([1]; 200 ppm, 0 = no control): 100%; Test I disease control rating ([2]; 200 ppm, 0 = no control): 74%; Test J disease control rating ([3]; 200 ppm, 0 = no control): 0%; Test H disease control rating ([4]; 200 ppm, 0 = no control): 9%; Test D disease control rating ([5]; 200 ppm, 0 = no control): 82%; Test F disease control rating ([6]; 200 ppm, 0 = no control): 0%; Test G disease control rating ([7]; 200 ppm, 0 = no control): 85%
COc1cc(C#N)cc(F)c1-c1c(Cl)nc(Cl)n1-c1ccc(Cl)c(F)c1 [compound 575]	96	76	72	0	0	0	73	
Clc1ccc(-c2c(Cl)ncn2Cc2cccc(Cl)c2)cc1 [compound 272]								Test C disease control rating ([1]; 200 ppm, 0 = no control): 64%; Test I disease control rating ([2]; 200 ppm, 0 = no control): 55%; Test J disease control rating ([3]; 200 ppm, 0 = no control): 0%; Test H disease control rating ([4]; 200 ppm, 0 = no control): 17%; Test D disease control rating ([5]; 200 ppm, 0 = no control): 0%; Test F disease control rating ([6]; 200 ppm, 0 = no control): 0%; Test G disease control rating ([7]; 200 ppm, 0 = no control): 91%
COc1ccc(-n2c(Cl)nc(Cl)c2-c2c(F)cccc2F)cn1 [compound 621]	100	100	100	100	100	99	98	
Cc1ncc(Cc2c(F)cc(F)cc2F)n1-c1c(Cl)cccc1Cl [compound 536]	89	98	98	37	68	0	90	
3-[4-[4-chloro-2-methyl-1-(4-methylphenyl)-1H-imidazol-5-yl]-3,5-difluorophenoxy]-N-methyl-1-propanamide hydrochloride [Compound 734]	100	100	95	41	99	99	99	
Fc1cccc(F)c1-c1c(Cl)nc(CCl)n1-c1ccc2c(c1)OCCO2 [compound 469]								Test C disease control rating ([1]; 40 ppm (marked *)): 65* %; Test I disease control rating ([2]; 40 ppm (marked *)): 81* %; Test J disease control rating ([3]; 40 ppm (marked *)): 0* %; Test H disease control rating ([4]; 40 ppm (marked *)): 0* %; Test D disease control rating ([5]; 40 ppm (marked *)): 0* %; Test F disease control rating ([6]; 40 ppm (marked *)): 0* %; Test G disease control rating ([7]; 40 ppm (marked *)): 79* %
Cc1ncn(-c2ccc(Cl)c(F)c2)c1-c1ccccc1F [compound 318]	100	9	87	0	16	0	91	
COc1ccc(F)c(-c2c(Cl)ncn2-c2ccc(C)c(F)c2)c1F [compound 520]	100	99	100	0	100	0	97	
Fc1cccc(F)c1-c1c(Cl)nc(Cl)n1-c1ccccc1 [compound 591]	100	98	98	96	100	0	97	
COc1ccc(Cl)c(-c2c(Cl)nc(Br)n2-c2ccc(Cl)cc2)c1F [compound 512]	97	79	99	40	98	0	98	
N#Cc1ccc(F)c(-c2c(Cl)nc(Cl)n2-c2ccc(F)cc2)c1F [compound 679]	100	100	100	18	100	99	99	
